SMILES strings stand for the structures. Active and inactive are the calls of the source. The calls are words filed in the database; no cut-off is given here.

The experiment relates to Human immunodeficiency virus 1. Briefly: Antiviral activity against HIV1 in human cells by XTT assay. The class given is functional, organism-based. For orientation: Formazan colour is commonly taken as a measure of viable cells.
Consider `CC(C)=CCC[C@]1(C)C=Cc2c(ccc3c2C(=O)C(O)=C(C)C3=O)O1`, for which the result was inactive.
With `COC1=C(C)C(=O)c2ccc3c(c2C1=O)C=C[C@@](C)(CCC=C(C)C)O3` the entry was “inactive”.
As for `CC(C)=CCC/C(C)=C/Cc1c(O)ccc2c1C(=O)C(O)=C(C)C2=O`, the outcome was inactive.
The entry for `COC1=C(C)C(=O)c2ccc3c(c2C1=O)C=C[C@@](C)(CCCC(C)(C)O)O3` is “inactive”; for `COc1cc2c(cc1O)C(=O)C(C)=C(C)C2=O` it is “inactive”; for `CC1=C(O)C(=O)c2c(ccc3c2C=C[C@@](C)(CCCC(C)(C)O)O3)C1=O` it is “inactive”.
